In one assay the test system is E. coli ribosome. In words: Translocation assay. It counts as biochemical. As to conditions: 250 μM negamycin; pre-translocation complex, toeprint read-out. Here is the method:
In vitro translocation assay was carried out using the model mRNA MFK (Supplementary Table 9) as described. The mRNA was prepared by in vitro transcription of a PCR product amplified using the primers MF_F1, MF_F2, and MF_R (Supplementary Table 8). A 4.5 μl reaction containing 1 μM E. coli ribosomes, 0.5 μM mRNA, 1 μM tRNAi^Met, 0.5 μM radiolabelled NV1 primer (Supplementary Table 8), 2 U μl^−1 RiboLock RNase Inhibitor (Thermo), and antibiotic tested (50 μM MKM or 250 μM negamycin) in pure system buffer (PSB; 9 mM Mg(CH3COO)2, 5 mM K3PO4, 95 mM potassium glutamate, 5 mM NH4Cl, 0.5 mM CaCl2, 1 mM spermidine, 8 mM putrescine, 1 mM dithiothreitol, pH 7.3)[90] was incubated for 20 min at 37 °C. Then N-acetyl-Phe-N-tRNA^Phe (ref. [91]), in which amino acid is attached to the A3′ hydroxyl of the tRNA via an amide bond, was added to the final concentration of 2 μM followed by 10 min incubation at 37 °C. After addition of the E. coli EF-G and GTP to the final concentrations of 0.2 μM and 533 μM, respectively and incubation for 5 min at 30 °C, 1 µl of the mixture of AMV reverse transcriptase (Roche) and dNTPs (2.1 U/µl AMV reverse transcriptase and 2 mM dNTPs in PSB) was added, and the reactions were incubated for another 5 min at 30 °C. […]

The test system of a further assay is M. tuberculosis H37Ra. As to conditions: Middlebrook 7H9 + 10% OADC + 0.05% Tween-80.
A further assay concerns E. coli C1508. The settings on record: broth microdilution, MDR clinical isolate. (In broth dilution the organism is exposed to a series of concentrations in liquid medium.)
The subject of the next assay is S. aureus USA 300. The settings on record: USA 300.
Assay [1] deals with M. bovis BCG Pasteur ATCC 35734. The settings on record: Middlebrook 7H9 + 10% OADC + 0.05% Tween-80.
Another assay concerns E. coli ΔtolC ΔbamB. The settings on record: broth microdilution.

≈ marks a conversion by molar mass, not a printed value. Read-outs that look alike come from different tables or passages of the source. Where a SMILES comes first, the peptide text is derived from it. Bridges are numbered along the chain shown (N, C = ends). [ ]: non-standard residue; d: D form. dOrn = NCCC[C@@H](N)C(=O)O A value given as a limit tells only on which side of the number the result lay.

`CN(CC(=O)O)NC(=O)C[C@H](N)C[C@@H](O)CN` [negamycin]: in the assay with E. coli ribosome, the “inhibition of EF-G-dependent translocation” value is listed as “notably inhibited”.

`C[C@@H](O)[C@@H]1NC(=O)[C@@H](CCCNC(=N)N)NC(=O)[C@@H](CCCNC(=N)N)NC(=O)[C@@H](CC(N)=O)NC(=O)[C@@H](NC(=O)[C@@H](Cc2ccccc2)NC(=O)[C@@H](CCCN)NC(=O)[C@@H](CCCNC(=N)N)NC(=O)[C@@H](N)CCCNC(=N)N)[C@@H](C)OC(=O)[C@H](Cc2c[nH]cn2)NC1=O` [MKM-E] (H-R[dR][dOrn][dF]T[dN][dR][dR]TH; ester 5-C; N-terminus assumed): the minimum inhibitory concentration (MIC) – broadly, the lowest concentration found to suppress growth – was determined as 1 µg/mL in the assay on M. tuberculosis H37Ra; 32 µg/mL (≈ 23.9 µM) against Bacillus subtilis 168; 32 µg/mL (≈ 23.9 µM) against S. aureus ATCC 29213; 8 µg/mL (≈ 5.97 µM) against E. coli C1508 (Ca+ MHB Medium); 1 µg/mL (≈ 0.747 µM) against E. coli C1508 (MOPS Minimal Medium); 1 µg/mL (≈ 0.747 µM) in the assay with E. coli C1508 (RPMI Medium). For the same compound, the minimal inhibitory concentration (MIC) against S. aureus USA 300 was 16 µg/mL (≈ 11.9 µM); in assay [1], 1 µg/mL; against E. coli ΔtolC ΔbamB (Ca+ MHB Medium), 2 µg/mL (≈ 1.49 µM); against E. coli ΔtolC ΔbamB (MOPS Minimal Medium) it was 0.5 µg/mL (≈ 0.373 µM); against E. coli ΔtolC ΔbamB (RPMI Medium) it was below 0.5 µg/mL.

As to `C[C@@H](O)[C@@H]1NC(=O)[C@@H](CCCNC(=N)N)NC(=O)[C@@H](CCCNC(=N)N)NC(=O)[C@@H](CC(N)=O)NC(=O)[C@@H](NC(=O)[C@@H](Cc2ccccc2)NC(=O)[C@@H](CCCNC(=N)N)NC(=O)[C@H](N)CCCNC(=N)N)[C@@H](C)OC(=O)[C@H](Cc2c[nH]cn2)NC1=O` [MKM-B] (H-[dR][dR][dF]T[dN][dR][dR]TH; ester 4-C), the MIC with M. tuberculosis H37Ra amounted to 0.25 µg/mL; in the assay on Bacillus subtilis 168, 32 µg/mL (≈ 26.1 µM); in the assay on S. aureus ATCC 29213, 32 µg/mL (≈ 26.1 µM); against E. coli C1508 (Ca+ MHB Medium) it was 16 µg/mL (≈ 13.1 µM); against E. coli C1508 (MOPS Minimal Medium), 4 µg/mL (≈ 3.26 µM); in the assay with E. coli C1508 (RPMI Medium), 4 µg/mL (≈ 3.26 µM). In addition, the minimal inhibitory concentration (MIC) was 64 µg/mL (≈ 52.2 µM) in the assay with S. aureus USA 300; 0.25 µg/mL in assay [1]; 4 µg/mL (≈ 3.26 µM) against E. coli ΔtolC ΔbamB (Ca+ MHB Medium); 1 µg/mL (≈ 0.816 µM) in the assay on E. coli ΔtolC ΔbamB (MOPS Minimal Medium); 1 µg/mL (≈ 0.816 µM) against E. coli ΔtolC ΔbamB (RPMI Medium).
